Key:
[1] = tested on: Murine HSPCs transduced with MLL-AF9; test: Selection of MLL-AF9 transduced HSPCs in cytokine-supplemented methylcellulose with I-BET (IC40); type: cell-based, mouse
Description: Initial generation of immortalised parental cell lines was achieved through magnetic bead selection (Miltenyi Biotec) of c-kit positive cells, obtained from whole bone marrow of male and female C57BL/6 mice, and subsequent retroviral transduction with either an MSCV-MLL-AF9-IRES-YFP or an MSCV-MLL-ENL construct.
Individual vehicle-treated or resistant colonies were picked and transferred to liquid culture to generate clonal cell lines. […] Vehicle-treated clones were also continuously maintained in 0.1% DMSO and passaged in identical fashion. The parental cell line was continuously maintained with no exposure to vehicle or drug.

[2] = tested on: vehicle treated cells / I-BET naive bulk leukaemia cells; test: Clonogenic, apoptosis and cell cycle assays, vehicle treated (I-BET naive) cells; type: cell-based, mouse
Procedure: (§1) Clonogenic potential was assessed through colony growth of derived cell lines plated in cytokine supplemented methylcellulose (Methocult M3434, Stemcell Technologies). […] Gr1−/CD11b- and Gr1+/CD11b+ fractions of resistant cell lines were plated in duplicate following FACS sorting at a cell dose of between 2×10^2 and 2×10^3 cells per plate. […] Cells were incubated at 37° C. and 5% CO2 for 7 to 10 days at which time colonies were counted.
(§2) Cell apoptosis was assessed using APC conjugated Annexin V (550475, BD Biosciences) and propidium iodide (PI) (P4864, Sigma-Aldrich) staining according to manufacturer's instructions.
(§3) For cell cycle analysis, cells were fixed overnight at −20° C. in 70% EtOH/PBS. Prior to flow cytometry analysis, cells were incubated at 37° C. for 30 minutes in PI staining solution (0.02 mg/mL PI, 0.05% v/v Triton-X in PBS, supplemented with DNase-free RNase A (19101, Qiagen) or incubated at room temperature for 10 minutes with 4′,6-diamidino-2-phenylindole (DAPI) staining solution (1 μg/ml DAPI, 0.05% v/v Triton-X in PBS).

[3] = tested on: I-BET resistant cells; test: Clonogenic, apoptosis and cell cycle assays, I-BET resistant cells; type: cell-based, mouse; settings: FIG. 1D-F
Procedure: as §1, §2, §3

[4] = tested on: L-GMPs from I-BET naive mice; test: Clonogenic assay of sorted I-BET naive L-GMPs; type: cell-based, mouse; settings: 1 μM I-BET; FIG. 2H
Procedure: as §1
Immunophenotype assessment for markers of committed differentiation was undertaken through staining with Alexa Fluor 700 anti-Gr-1 (108422, BioLegend) and Brilliant Violet 605 anti-CD11b (101237, BioLegend). Assessment of L-GMP populations was undertaken through staining with eFluor 660 anti-CD34 (50-0341-82, eBioscience), biotin lineage antibody cocktail (120-001-547, Miltenyi Biotec), PerCP/Cy5.5 anti-CD16/32 (101324, BioLegend), APC/Cy7 anti-CD117 (105826, BioLegend) and Pacific Blue anti-Ly-6A (122520, BioLegend) followed by secondary staining with V500 streptavidin (561419, BD Biosciences). […]

[5] = tested on: MLL-AF9 AML, parental cell line; test: Syngeneic transplantation AML model, recipients of the parental cell line, survival; type: in vivo, C57BL/6 mice; settings: I-BET 20-30 mg/kg IP; P<0.01, n=6, log-rank; FIG. 1H
Procedure: (§4) Serial syngeneic transplantation studies of drug efficacy, generation of in vivo resistance and limit dilution analyses were performed with intravenous injection of between 10 to 2.5×10^6 cells per mouse obtained from bone marrow or spleen.
(§5) Syngeneic transplantation studies were performed in C57BL/6 mice (wild type or expressing Ptprc^a). All mice were 6-10 weeks old at the time of sub-lethal irradiation (300 cGy) and intravenous cell injection. […] Mice were randomly assigned treatment groups; treatment administration was not blinded. Sample sizes were determined according to the resource equation method. Differences in Kaplan-Meier survival curves were analysed using the log-rank statistic.

[6] = tested on: MLL-AF9 AML, I-BET resistant cell line; test: Syngeneic transplantation AML model, recipients of resistant cells, survival; type: in vivo, C57BL/6 mice; settings: identical treatment strategy; P=0.877, n=6, log-rank; FIG. 1I
Procedure: as §4, §5

[7] = tested on: human AML patient derived xenograft; test: Patient derived xenograft (PDX) model of AML; type: in vivo, NOD SCID gamma (NSG) mice; settings: I-BET 10 mg/kg for 2 weeks; FIG. 2G
Description: Immunophenotype assessment for markers of committed differentiation was undertaken through staining with Alexa Fluor 700 anti-Gr-1 (108422, BioLegend) and Brilliant Violet 605 anti-CD11b (101237, BioLegend). Assessment of L-GMP populations was undertaken through staining with eFluor 660 anti-CD34 (50-0341-82, eBioscience), biotin lineage antibody cocktail (120-001-547, Miltenyi Biotec), PerCP/Cy5.5 anti-CD16/32 (101324, BioLegend), APC/Cy7 anti-CD117 (105826, BioLegend) and Pacific Blue anti-Ly-6A (122520, BioLegend) followed by secondary staining with V500 streptavidin (561419, BD Biosciences). Assessment of leukemic LMPP and GMP populations in patient derived xenografts was undertaken through staining with APC/Cy7 anti-mouse CD45.1 (110716, Biolegend), eFluor 450 anti-mouse Ter119 (48-5921-82, eBioscience), FITC anti-human CD45 (11-9459-42, eBioscience), BV711 anti-human CD38 (563965, BD Biosciences), PE anti-human CD90 (561970, BD Biosciences), PE-Cy5 anti-human CD123 (15-1239-41, eBioscience), PerCP-Cy5.5 anti-human CD45RA (45-0458-42), biotin anti-human CD3 (555338, BD Biosciences), biotin anti-human CD19 (555411, BD Biosciences), PE-Cy7 anti-human CD33 (333946, BD Biosciences) and APC anti-human CD34 (555824, BD Biosciences) followed by secondary staining with V500 streptavidin (561419, BD Biosciences). […]

[8] = tested on: I-BET resistant clones; test: Cell growth of I-BET resistant clones under JQ1; type: cell-based, mouse; settings: 100 nM JQ1; FIG. 1C
Procedure: Following 72 hour incubation, resazurin was added to each well and plates were further incubated for 3 hours. Fluorescence was then read at 560 nm/590 nm on a Cytation 3 Imaging Reader (BioTek). Cell counts were performed using a haemocytometer. Determination of in vitro synergy in proliferation assays was undertaken according to the method of Zhao et al. (2014, Journal of molecular screening, 19: 817-821).

SMILES | IC40 [1] [nM] | clonogenic potential ([2]; 1 μM I-BET, I-BET naive bulk leukaemia cells, FIG. 1D) | I-BET mediated suppression of clonogenic capacity, induction of apoptosis and cell cycle arrest ([2]; vehicle treated cells, FIG. 1D-F) | I-BET mediated suppression of clonogenic capacity, induction of apoptosis and cell cycle arrest [3] | L-GMPs able to survive in clonogenic assay [4] | survival [5] | survival [6] | effect on leukemic LMPP population (hCD45 expression) [7] | resistance of I-BET resistant clones to JQ1 [8]
COc1cc2c(cc1-c1c(C)noc1C)ncc1[nH]c(=O)n([C@H](C)c3ccccn3)c12 [I-BET, I-BET 151] | 400 | virtually eradicates | exquisitely sensitive | impervious | 30-40% | significant survival advantage | survival advantage is abrogated | enriches for the leukemic LMPP population | 
Cc1sc2c(c1C)C(c1ccc(Cl)cc1)=N[C@@H](CC(=O)OC(C)(C)C)c1nnc(C)n1-2 [JQ1] |  |  |  |  |  |  |  |  | cross-resistance

Reference: patent publication US9896663B2, “Leukaemia stem cell line, its method of production and uses thereof” (Peter MacCallum Cancer Institute, priority 2016, dated 2018)
